{"source": "patent US5382586A", "about": "“Aryl (or heteroaryl)piperazinylalkylazole derivatives, their preparation and their application as medicaments” (priority 1991, dated 1995)", "key": {"[1]": {"test_system": "norepinephrine-induced death in rats", "assay": "norepinephrine antagonism test in rats (antihypertensive activity)", "format": "in vivo, rat (male Wister)", "settings": "D = 40 mg/kg, i.p.; rat; norepinephrine 1.25 mg/kg i.v. after 2 hours", "experimental": "This activity is manifested by the protection of animals before death induced by an intravenous injection of norepinephrine, which produces a hypertensive attack in rats.\nMale Wister rats weighing 200 grammes are used in this test. The product to be studied is administered intraperitoneally and 1.25 mg/kg (i.v.) of norepinephrine are administered after 2 hours.\nThe initial administration dose in these studies is 40 mg/kg (i.p.)."}, "immobility of mice": {"test_system": "immobility of mice", "assay": "desperate behaviour test (antidepressant activity)", "format": "in vivo, mouse", "settings": "i.p.", "experimental": "The desperate behaviour test in mice, described by R. D. Porsolt et al. (Arch. Int. Pharmacodyn. 1977, 229, 327-336), is used.\nThe animals are placed for 6 minutes in a cylinder containing water, from which they are not able to escape. The period of immobility between minutes 2 and 5 is determined for groups of 10 mice per dosage tested.\nThe product studied is administered i.p. 1 hour before the test. In this test the immobility of the animals is explained as being produced by their depressed state resulting from being faced with an adverse and insoluble situation in a hostile environment such as water.\nIn our test imipramine (30 mg/kg; i.p.) was used as reference product."}, "[2]": {"test_system": "mice, abstinence syndrome induced by cocaine, diazepam, alcohol or nicotine", "assay": "light box/dark box test: inhibition of the abstinence syndrome", "format": "in vivo, mouse", "set-up": "Time in box, dark (D) / Latent period L-D: unit not given here", "experimental": "The light box/dark box test described by B. Costall et al. (J. Phar. Pharmacol., 1988, 40: 494-500) is used. The mouse is placed in the light zone of a box divided into two compartments, one brightly illuminated, the light box, and the other with little illumination, the dark box.\n1) The number of times the mouse stands up on the hind paws in each compartment during a 5 minute period is counted (see Column 1 of Table V).\n2) The activity in each compartment is given by counting the number of crossings through the squares which form the divisions of each compartment (see Column 2 of Table V).\n3) The time passed in the dark box during the 5 minute counting period is determined (see Column 3 of Table 5).\n4) The initial latent period is determined, that is to say the time which elapses after the animal is placed in the light box, at the start of the test, before it enters the dark box (see Column 4 of Table 5).\n1) Dependency on a given treatment (diazepam, cocaine, alcohol or nicotine) employing daily administration over a period of 7 or 14 days.\nDiazepam: 10 mg/kg i.p. twice per day over a period of 7 days.\nCocaine: 1 mg/kg i.p. over a period of 14 days.\nAlcohol: Administered at 8% weight/volume in the drinking water over a period of 14 days. Nicotine: 0.1 mg/kg i.p. twice per day over a period of 7 days.\n3) Other different groups receive, in addition to diazepam, cocaine, alcohol or nicotine, a concomitant treatment with products which are the subject of the present invention and, by way of comparison, with buspirone or ipsapirone.\nThe product described and the doses tested were: 4,5-dichloro-2-methyl-1-{4-[4-(2-pyrimidinyl)-1-piperazinyl]-butyl}-1H-imidazole citrate.\n1 μg/kg p.o. twice per day."}, "[3]": {"test_system": "conditioned avoidance response in male Wistar rats", "assay": "conditioned avoidance response test (inhibition of the conditioned avoidance response; anxiolytic/tranquillising activity)", "format": "in vivo, rat (male Wistar)", "settings": "rat", "experimental": "Male Wistar rats weighing 200 grammes which have been trained to jump over a barrier in an avoidance and escape cage (shuttle box) (Letica, reference LI 910 and LI 2700) within 30 seconds of their being introduced into the cage are used in this test.\nThe products having an anxiolytic or tranquillising activity suppress the conditioned avoidance response.\nTraining: day one: 11 trials at 3 minute intervals. Electric shock to the paws after 30 seconds (5 mA, 0.1 s, 10 s).\nDays two and three: 2 trials per day, with the selected rats only [sum of the scores for the first day (with the exception of the first trial)>14].\nTest day: groups formed by selected rats. Oral administration of the product or the vehicle 45 minutes before the start of the study."}, "[4]": {"settings": "24 h after stopping alcohol (alone, or with the named product; Ex. 42 at 1 μg/kg p.o. twice per day)"}, "[5]": {"settings": "24 h after stopping cocaine (alone, or with the named product; Ex. 42 at 1 μg/kg p.o. twice per day)"}, "[6]": {"settings": "24 h after stopping diazepam (alone, or with the named product; Ex. 42 at 1 μg/kg p.o. twice per day)"}, "[7]": {"settings": "24 h after stopping nicotine (alone, or with the named product; Ex. 42 at 1 μg/kg p.o. twice per day)"}}, "data": [{"smiles": "Cc1nc(Cl)c(Cl)n1CCCCN1CCN(c2ncccn2)CC1.O=C(O)CC(O)(CC(=O)O)C(=O)O", "note": "[Example 42, 4,5-dichloro-2-methyl-1-{4-[4-(2-pyrimidinyl)-1-piperazinyl]-butyl}-1H-imidazole citrate]", "values": [{"measurement": "Activity % (norepinephrine antagonistic antihypertensive activity)", "setting": "[1]", "result": 0, "unit": "%"}, {"measurement": "Period of immobility", "setting": "immobility of mice; 1 mg/kg, p < 0.05, control 118 s", "result": 64, "unit": "s"}, {"measurement": "antidepressant activity (reduction of the period of immobility)", "setting": "immobility of mice; mice", "result": "significantly reduces the period of immobility"}, {"measurement": "Activity within 5 min period, dark box (D)", "setting": "[2]; [4]", "result": 23}, {"measurement": "Activity within 5 min period, light box (L)", "setting": "[2]; [4]", "result": 97}, {"measurement": "Latent period L-D", "setting": "[2]; [4]", "result": 20}, {"measurement": "Number of times standing erect within 5 min. period, dark box (D)", "setting": "[2]; [4]", "result": 17}, {"measurement": "Number of times standing erect within 5 min. period, light box (L)", "setting": "[2]; [4]", "result": 86}, {"measurement": "Time in box, dark (D)", "setting": "[2]; [4]", "result": 26}, {"measurement": "Activity within 5 min period, dark box (D)", "setting": "[2]; [5]", "result": 23}, {"measurement": "Activity within 5 min period, light box (L)", "setting": "[2]; [5]", "result": 92}, {"measurement": "Latent period L-D", "setting": "[2]; [5]", "result": 26}, {"measurement": "Number of times standing erect within 5 min. period, dark box (D)", "setting": "[2]; [5]", "result": 20}, {"measurement": "Number of times standing erect within 5 min. period, light box (L)", "setting": "[2]; [5]", "result": 86}, {"measurement": "Time in box, dark (D)", "setting": "[2]; [5]", "result": 30}, {"measurement": "Activity within 5 min period, dark box (D)", "setting": "[2]; [6]", "result": 19}, {"measurement": "Activity within 5 min period, light box (L)", "setting": "[2]; [6]", "result": 96}, {"measurement": "Latent period L-D", "setting": "[2]; [6]", "result": 28}, {"measurement": "Number of times standing erect within 5 min. period, dark box (D)", "setting": "[2]; [6]", "result": 17}, {"measurement": "Number of times standing erect within 5 min. period, light box (L)", "setting": "[2]; [6]", "result": 85}, {"measurement": "Time in box, dark (D)", "setting": "[2]; [6]", "result": 36}, {"measurement": "Activity within 5 min period, dark box (D)", "setting": "[2]; [7]", "result": 20}, {"measurement": "Activity within 5 min period, light box (L)", "setting": "[2]; [7]", "result": 102}, {"measurement": "Latent period L-D", "setting": "[2]; [7]", "result": 23}, {"measurement": "Number of times standing erect within 5 min. period, dark box (D)", "setting": "[2]; [7]", "result": 18}, {"measurement": "Number of times standing erect within 5 min. period, light box (L)", "setting": "[2]; [7]", "result": 90}, {"measurement": "Time in box, dark (D)", "setting": "[2]; [7]", "result": 29}, {"measurement": "anxiolytic response when the administration is stopped", "setting": "[2]; diazepam, cocaine, alcohol or nicotine stopped, 1 μg/kg p.o. twice per day", "result": "maintains a significant anxiolytic response"}, {"measurement": "inhibition of the abstinence syndrome", "setting": "[2]; induced by diazepam, cocaine, alcohol and nicotine, 1 μg/kg p.o. twice per day", "result": "inhibits the abstinence syndrome"}, {"measurement": "Activity % (inhibition of the conditioned avoidance response)", "setting": "[3]; D = 80 mg/kg, p.o., 45 min before test", "result": 82, "unit": "%"}, {"measurement": "ED50", "setting": "[3]; po, 0.75 h", "result": 24.5, "unit": "mg/kg"}]}]}
